Tests used:
A549 cells = experiment: MTT cytotoxicity assay, A549; type: cell-based, human; details: 24 h; for cytotoxicity at 100 µM: Homo sapiens, A549, 100 μΜ, read-out: Cell Toxicity A549 % (100 μΜ)
Protocol: (§1) Furthermore, the coumarin compounds synthesized in this study were also evaluated for their cytotoxicity against A549 (adenocarcinomic human alveolar basal epithelial cells) and A375 (human melanoma) cell lines.
(§2) This protocol was used for the evaluation of cell viability and all the cell lines. It must be noted that this assay describes the count of cells that remain alive after the treatment. For the experimental procedure a standard solution of MTT 1mg/mL in PBS was prepared which after filtration ([…] filter (Millipore, Carrigtwohill, Ireland)) was stored in the dark (4–8 °C) until use. In a 96-well plate, HaCaT, A549 and A375 cells were seeded in a number of 30 × 10^4 cells/well for each evaluation series respectively. The cells were incubated (37 °C, 5% CO2) for 24 h, followed by the addition of the tested analogues (100 μM, diluted in DMEM) and another 24-h incubation. Next, appropriate amount of MTT was added in the tested wells and the plate returned to the incubator for the next 4 h for the formation of the formazan crystals. The formazan crystals were then redissolved by adding DMSO (100 μL) and stirring lightly for 40 min, after which the absorbance was measured in a plate reader at 540 nm with a reference absorbance of 720 nm.
(§3) All samples were tested in triplicate, against a control (only cells), blank (no cells), and positive control (100 μM standard silibinin solution was used as a “cell-killing” standard).

[1] = Inhibition of AAPH induced linoleic acid oxidation (lipid peroxidation)
Source text: AAPH induced linoleic acid oxidation has been developed as a quick and reliable antioxidant activity assay. It is based on the inhibition of linoleic acid oxidation, initiated by the thermal free radical producer 2,2′-azobis(2-amidinopropane) dihydrochloride (AAPH), providing a measure of how efficiently antioxidants protect against lipid oxidation in vitro. Oxidation of exogenous linoleic acid by AAPH is followed by UV spectrophotometry at 234 nm in a highly diluted sample [38].
For the reference sample in a UV cuvette, 10 μL of the test sample (100 μM diluted in DMSO), 10 μL linoleic acid (LA) (16 mM), and buffer solution (pH 7.4) were added to a final volume of 1ml. For the measurement sample, in a UV cuvette, 10 μL of test sample, 50 μL AAPH (40 mM), 10 μL LA, and buffer solution were added to a final volume of 1 mL. Standard and blank samples were prepared in the same way using DMSO (solvent) instead of the tested coumarin analogues. The absorbance was measured after 2 min at 37 °C at 234 nm. Results were obtained via the following Equation (5):(5) %Inhibition=(Standard−Blank)−(Reference Sample−Measurement Sample)/(Standard−Blank) × 100

A375 cells = experiment: MTT cytotoxicity assay, A375; type: cell-based, human; details: Homo sapiens, A-375, 24 h, A375, 100 μΜ, read-out: Cell Toxicity A375 % (100 μΜ)
Protocol: as §1, §2, §3

[2] = ABTS radical scavenging assay; details: 6 min
Protocol: The ABTS radical cation scavenging assay is a decolorization assay frequently used as an antioxidant activity estimation protocol. […] The absorbance is measured at 734 nm and the antioxidant capacity is compared to a standard antioxidant solution, such as ascorbic acid.
For the evaluation of antioxidant activity, the scavenging capacities of all samples were measured via the ABTS assay, as previously described by Kontogiorgis et al. with some modifications. Briefly, an ethanolic standard ABTS solution (7 mM) was prepared by the addition of ABTS salt and potassium persulfate. […] Each sample was diluted in DMSO and tested in triplicate. The tested mixture contained 10–20 µL of sample and 990–980 µL of the ABTS solution, for a total volume of 1 ml. Blank samples contained equal amounts of DMSO instead of the coumarin analogues, and ascorbic acid was used as a reference sample for the final evaluation of the ABTS scavenging capacity. All mixtures were stored at room temperature to allow decolorization and measured after 6 min. The percentage reduction of the ABTS radical was evaluated according to the following Equation (3):(3) % Reduction=Control OD (mean)−Sample OD (mean)/Control OD (mean)×100

[3] = MTT cell viability assay, HaCaT; type: cell-based, human; details: human, HaCaT cells, 100 μΜ, 24 h
Source text: The MTT assay (3- [4,5-dimethylthiazol-2-yl] -2,5 diphenyl tetrazole) is based on the conversion of MTT to formazan crystals by living cells, which determines mitochondrial activity. Since for most cell populations total mitochondrial activity is related to the number of viable cells, this assay is widely used to measure the in vitro cytotoxic effects of drugs on various cell lines or primary cells. The principle of the MTT assay is that for most viable cells the mitochondrial activity is stable, and therefore, an increase or decrease in the number of viable cells is linearly related to mitochondrial activity. The mitochondrial activity of the cells is reflected by the conversion of the MTT tetrazole salt to formazan crystals (bright purple), which can be solubilized (in this protocol with DMSO) for homogeneous measurement. Thus, any increase or decrease in the number of viable cells can be detected by measuring the formazan concentration reflected in the optical density (OD) measurement at 540 nm with a reference absorption of 720 nm.
All the compounds were tested for their cytotoxic activity against blank and control samples in the human epidermal keratinocyte line (HaCaT), at the concentration of 100 μΜ, and the results are presented in Table 4.
as §2, §3

| Compound | Cell Toxicity A549 % (100 μΜ) (A549 cells) | IC50 [1] [µM] | cytotoxicity at 100 µM (A375 cells) [%] | ABTS^•+ % (100 μΜ) [2] | viability at 24 h, 100 μM [3] [%] | cytotoxicity at 100 µM (A549 cells) [%] | AAPH % inhibition (100 μΜ) [1] |
| --- | --- | --- | --- | --- | --- | --- | --- |
| CC(=O)Oc1cccc2oc(=O)c(-c3ccccc3Cl)c(C)c12 [Compound 3a, 5-acetyloxy-3-(2-chlorophenyl)-4-methyl-chromen-2-one] | no | 71.9 | 38.7 | no | 100 |  |  |
| CC(=O)Oc1cccc2oc(=O)c(-c3cccc(Cl)c3)c(C)c12 [Compound 3b, 5-acetyloxy-3-(3-chlorophenyl)-4-methyl-chromen-2-one] |  | 91.5 | > 60 | 1.9% | 100 | 24.6 |  |
| CC(=O)Oc1cccc2oc(=O)c(-c3ccc(Cl)cc3)c(C)c12 [Compound 3c, 5-acetyloxy-3-(4-chlorophenyl)-4-methyl-chromen-2-one] | no | 75.1 | 24.8 | 15.0% | 100 |  |  |
| CC(=O)Oc1cccc2oc(=O)c(-c3ccccc3F)c(C)c12 [Compound 3d, 5-acetyloxy-3-(2-fluorophenyl)-4-methyl-chromen-2-one] |  |  | 28.5 | no | 100 | 7.5 |  |
| CC(=O)Oc1cccc2oc(=O)c(-c3cccc(F)c3)c(C)c12 [Compound 3e, 5-acetyloxy-3-(3-fluorophenyl)-4-methyl-chromen-2-one] |  |  | > 60 | 2.0% | 96.5 | 8.9 | inactive and no |
| CC(=O)Oc1cccc2oc(=O)c(-c3ccc(F)cc3)c(C)c12 [Compound 3f, 5-acetyloxy-3-(4-fluorophenyl)-4-methyl-chromen-2-one] | no |  | 35.8 | no | 100 |  |  |
| CC(=O)Oc1cccc2oc(=O)c(-c3cccc(Br)c3)c(C)c12 [Compound 3g, 5-acetyloxy-3-(3-bromophenyl)-4-methyl-chromen-2-one] | no | 50.7 | 7.02 | 2.8% | 100 |  |  |
| CC(=O)Oc1ccc(-c2c(C)c3ccccc3oc2=O)cc1 [Compound 3h, 3-(4-acetyloxyphenyl)-4-methyl-chromen-2-one] | no | 70.7 | 43.2 | no | 96.2 |  |  |
| CC(=O)Oc1ccc(-c2c(C)c3cc(Br)ccc3oc2=O)cc1 [Compound 3i, 3-(4-acetyloxyphenyl)-6-bromo-4-methyl-chromen-2-one] | no | 70.7 | 50 to 60 | no | 100 |  |  |
| CC(=O)Oc1ccc(-c2c(C)c3cc(Cl)ccc3oc2=O)cc1 [Compound 3j, 3-(4-acetyloxyphenyl)-6-chloro-4-methyl-chromen-2-one] | no |  | 50 to 60 | no | 90.5 |  | no |
| CC(=O)Oc1ccc(-c2c(C)c3cc(Br)cc(Br)c3oc2=O)cc1 [Compound 3k, 3-(4-acetyloxyphenyl)-6,8-dibromo-4-methyl-chromen-2-one] | no |  | 28.8 | no | 100 |  | inactive and no |
| CC(=O)Oc1ccc(-c2c(C)c3ccccc3oc2=O)cc1OC(C)=O [Compound 3l, 3-(4,5-diacetyloxyphenyl)-4-methyl-chromen-2-one] | no | 85.5 | 40.4 | 2.8% | 100 |  |  |
| CC(=O)Oc1ccc(-c2c(C)c3cc(Br)ccc3oc2=O)cc1OC(C)=O [Compound 3m, 3-(4,5-diacetyloxyphenyl)-6-bromo-4-methyl-chromen-2-one] | no | 37.1 | 33.3 | no | 100 |  |  |
| CC(=O)Oc1ccc(-c2c(C)c3cc(Cl)ccc3oc2=O)cc1OC(C)=O [Compound 3n, 3-(4,5-diacetyloxyphenyl)-6-chloro-4-methyl-chromen-2-one] | no | 84.3 | 11.5 | no | 100 |  |  |
| CC(=O)Oc1ccc(-c2c(C)c3cc(Br)cc(Br)c3oc2=O)cc1OC(C)=O [Compound 3o, 3-(4,5-diacetyloxyphenyl)-6,8-dibromo-4-methyl-chromen-2-one] | no | 77.2 | 45.6 | no | 100 |  |  |
| Cc1c(-c2ccccc2Cl)c(=O)oc2cccc(O)c12 [Compound 4a, 3-(2-chlorophenyl)-5-hydroxy-4-methyl-chromen-2-one] |  |  | 33.1 | 56.5% | 100 | 64.7 | no |
| Cc1c(-c2cccc(Cl)c2)c(=O)oc2cccc(O)c12 [Compound 4b, 3-(3-chlorophenyl)-5-hydroxy-4-methyl-chromen-2-one] | no |  | 52.8 | 49.2% | 100 |  | no |
| Cc1c(-c2ccc(Cl)cc2)c(=O)oc2cccc(O)c12 [Compound 4c, 3-(4-chlorophenyl)-5-hydroxy-4-methyl-chromen-2-one] |  | 86.6 | 22.2 | 65.2% | 63.7 | 54.5 |  |
| Cc1c(-c2ccccc2F)c(=O)oc2cccc(O)c12 [Compound 4d, 3-(2-fluorophenyl)-5-hydroxy-4-methyl-chromen-2-one] |  |  | 11.5 | 73.3% | 100 | 75.7 | 0.0% |
| Cc1c(-c2cccc(F)c2)c(=O)oc2cccc(O)c12 [Compound 4e, 3-(3-fluorophenyl)-5-hydroxy-4-methyl-chromen-2-one] |  |  | 43.1 | 69.2% | 92.4 | 52.3 | 31.0% |
